We go through nine compounds from PubChem BioAssay (NCI).

Test systems include IGROV1 ovarian; SNB-75 CNS; SF-268 CNS; RXF 393 renal; UO-31 renal; HL-60(TB) leukemia; COLO 205 colon; MALME-3M melanoma; SF-295 CNS; M14 melanoma.
Experiment in all cases: NCI anticancer screen, dose series, 48 h

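Growth conditions: 96-well plates. Treatment: test compound, 48 hours, 5 concentrations. Analysis: linear interpolation between bracketing concentrations; unreached endpoints set to highest concentration. Abbreviation: GI50, concentration required for 50% inhibition of growth. Definition used: TGI = concentration required for complete inhibition of growth.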

Take `CCCCCCCCCCCCCCCc1cc(O)ccc1N`: the GI50 in the assay with IGROV1 ovarian was 0.416 µM; with SNB-75 CNS, 4.76 µM; with SF-268 CNS it was 4.33 µM; in the assay with RXF 393 renal, 18.5 µM; in the assay with UO-31 renal, 0.685 µM; with HL-60(TB) leukemia it was 0.142 µM. Besides, the GI50 is over 9.96 µM in the assay with COLO 205 colon, over 62.1 µM in the assay on MALME-3M melanoma, 3.46 µM with SF-295 CNS and over 100 µM in the assay on M14 melanoma. Moreover, the TGI is 6.61 µM with IGROV1 ovarian; 68.9 µM in the assay with SNB-75 CNS; 23.9 µM with SF-268 CNS; over 84.6 µM in the assay on RXF 393 renal; 9.36 µM in the assay with UO-31 renal; 0.532 µM in the assay with HL-60(TB) leukemia. In addition, the TGI in the assay on COLO 205 colon is over 62.5 µM; with MALME-3M melanoma it was over 100 µM; in the assay with SF-295 CNS, over 100 µM; in the assay with M14 melanoma it was over 100 µM.
Regarding `O=c1c2ccc3cccc4c(=O)cc(c5ccccc15)-c2c34`, the TGI in the assay with IGROV1 ovarian, with SNB-75 CNS, in the assay on SF-268 CNS, in the assay on RXF 393 renal, in the assay on UO-31 renal and in the assay on HL-60(TB) leukemia was over 100 µM throughout. Besides, the TGI in the assay with COLO 205 colon, in the assay with MALME-3M melanoma, with SF-295 CNS and in the assay with M14 melanoma was over 100 µM in each case.
Regarding `O=C1c2ccccc2C(=O)N1c1ccc(S(=O)(=O)Nc2ncccn2)cc1`, the GI50 with IGROV1 ovarian, with SNB-75 CNS, with SF-268 CNS, in the assay on RXF 393 renal, in the assay on UO-31 renal and with HL-60(TB) leukemia was over 100 µM throughout. For the same compound, the GI50 in the assay with COLO 205 colon, in the assay with MALME-3M melanoma, with SF-295 CNS and in the assay with M14 melanoma was over 100 µM each time. Moreover, the TGI in the assay on IGROV1 ovarian, in the assay on SNB-75 CNS, with SF-268 CNS, with RXF 393 renal, with UO-31 renal and in the assay on HL-60(TB) leukemia was over 100 µM each time. Further, the TGI with COLO 205 colon, in the assay with MALME-3M melanoma, in the assay with SF-295 CNS and with M14 melanoma was over 100 µM in each case.
On to `CC(C)(C)c1ccc([I+]c2ccc(C(C)(C)C)cc2)cc1`, for which the GI50 in the assay with IGROV1 ovarian is 2.33 µM; in the assay with SNB-75 CNS, 1.44 µM; in the assay with SF-268 CNS, 1.93 µM; in the assay with RXF 393 renal, 1.99 µM; in the assay on UO-31 renal, 3.62 µM; with HL-60(TB) leukemia it was 0.55 µM. Besides, the GI50 was 1.06 µM in the assay on COLO 205 colon, 0.545 µM in the assay on MALME-3M melanoma, 2.22 µM in the assay on SF-295 CNS and 1.47 µM in the assay with M14 melanoma. Besides, the TGI with IGROV1 ovarian stood at 12.2 µM; with SNB-75 CNS it was 6.1 µM; with SF-268 CNS, 7.53 µM; with RXF 393 renal, 5.52 µM; with UO-31 renal, 14.8 µM; with HL-60(TB) leukemia, 2.46 µM. For the same compound, the TGI in the assay with COLO 205 colon was determined as 2.8 µM; in the assay on MALME-3M melanoma, 2.01 µM; with SF-295 CNS it was 5.28 µM; with M14 melanoma it was 4.09 µM.
As for `COC(=O)c1ccccc1NC(=O)/C(=N\NC(C)(C)C)C(C#N)c1nc(-c2ccc([N+](=O)[O-])cc2)cs1` (stereo not drawn), the TGI with IGROV1 ovarian, in the assay on SNB-75 CNS, in the assay with SF-268 CNS, in the assay on RXF 393 renal, in the assay on UO-31 renal and with HL-60(TB) leukemia was over 100 µM throughout. In addition, the TGI in the assay with COLO 205 colon, with MALME-3M melanoma, in the assay on SF-295 CNS and in the assay with M14 melanoma was over 100 µM throughout.
As to `CC1(C)N=C(N)N=C(N)N1c1ccc(F)c(C(F)(F)F)c1`, the GI50 in the assay with IGROV1 ovarian is 0.53 µM; in the assay on SF-268 CNS, 0.158 µM; with RXF 393 renal it was over 31.5 µM; in the assay on UO-31 renal it was 8.86 µM; in the assay on HL-60(TB) leukemia, 0.438 µM; with COLO 205 colon, 5.11 µM. Besides, the figures for the GI50 with MALME-3M melanoma, with SF-295 CNS and in the assay with M14 melanoma were 26.7 µM, 0.408 µM and 0.827 µM, respectively. Besides, the TGI in the assay on IGROV1 ovarian, with SNB-75 CNS, in the assay on SF-268 CNS, in the assay with RXF 393 renal, in the assay with UO-31 renal and in the assay on HL-60(TB) leukemia was over 100 µM each time. For the same compound, the TGI in the assay on COLO 205 colon, in the assay with MALME-3M melanoma and in the assay on M14 melanoma was over 100 µM in each case.
As for `O=Cc1ccc(-c2ccc(-c3ccc(C=O)s3)o2)s1`, the TGI with IGROV1 ovarian is 35.8 µM; with SNB-75 CNS, 78.8 µM; in the assay with SF-268 CNS, over 100 µM; in the assay with RXF 393 renal it was 2.65 µM; with UO-31 renal, over 100 µM; in the assay on HL-60(TB) leukemia, over 100 µM. In addition, the TGI was 37 µM with COLO 205 colon, over 100 µM with MALME-3M melanoma, over 100 µM in the assay on SF-295 CNS and over 100 µM in the assay with M14 melanoma.
On to `O=C(Nc1ccc(Br)cc1)Nc1n[nH]c2ccccc12`, for which the GI50 was 17.5 µM with IGROV1 ovarian; 34.4 µM with SNB-75 CNS; over 46 µM with SF-268 CNS; over 62.8 µM in the assay with RXF 393 renal; 25.8 µM in the assay on UO-31 renal; 18.7 µM in the assay on HL-60(TB) leukemia. The GI50 in the assay with COLO 205 colon was over 100 µM; in the assay on MALME-3M melanoma, over 19.7 µM; in the assay with SF-295 CNS, over 100 µM; in the assay on M14 melanoma, over 100 µM. Further, the TGI is over 100 µM in the assay on IGROV1 ovarian; over 82.7 µM with SNB-75 CNS; over 100 µM in the assay with SF-268 CNS; over 100 µM in the assay with RXF 393 renal; over 100 µM with UO-31 renal; over 90 µM in the assay on HL-60(TB) leukemia. Further, the TGI in the assay on COLO 205 colon, in the assay with MALME-3M melanoma, with SF-295 CNS and in the assay on M14 melanoma was over 100 µM in each case.
For the compound `CC(=O)/C=C/C1=C(c2cc3ccccc3s2)c2ccccc2CC1`, the GI50 is 27.4 µM in the assay with IGROV1 ovarian; 29.8 µM in the assay on SNB-75 CNS; 27.1 µM in the assay on SF-268 CNS; 24.9 µM in the assay on RXF 393 renal; 21 µM with UO-31 renal; 16.4 µM in the assay with HL-60(TB) leukemia. The GI50 was 29.9 µM with COLO 205 colon, 26.6 µM with MALME-3M melanoma, 37 µM with SF-295 CNS and 15.1 µM in the assay on M14 melanoma. Further, the TGI is over 100 µM with IGROV1 ovarian; over 100 µM in the assay with SNB-75 CNS; over 100 µM in the assay with SF-268 CNS; 57.2 µM in the assay on RXF 393 renal; 59.4 µM with UO-31 renal; 98.2 µM in the assay with HL-60(TB) leukemia. In addition, the TGI with COLO 205 colon was over 100 µM; in the assay with MALME-3M melanoma, 58.4 µM; in the assay on SF-295 CNS, over 100 µM; with M14 melanoma, 31.3 µM.
